In patent US20180118708A1, “CYCLIC COMPOUND” (Takeda Pharmaceutical Company Limited, priority 2015, published 2018):
Blank lines part the entries; values can stand above or below the compound they belong to.

Experiments:
[1] = tested on: TNFα; assay: Effect with respect to blood TNF-α concentration elevation by LPS stimulation; format: in vivo; settings: oral, female BALB/c mice, LPS 5 mg/kg i.p. one hour after compound, serum sampled one hour later, vs control group
Source text: Effect With Respect to Blood TNF-α Concentration Elevation by LPS Stimulation
Various kinds of cytokines are produced in vivo accompanying inflammatory response and abnormal immunity or the like. Therefore, the action of test compound with respect to blood TNFa concentration rise was investigated using laboratory animals.
Female BALB/c mice (6 weeks old) were purchased, and, after preliminary rearing for about 1 week, the mice were divided into groups of four animals. […] Solvent was administered to control group in the same way. LPS (5 mg/kg) was administered intraperitoneally to the test group and the control group one hour after the administration of the test compound or solvent, and blood was sampled one hour later. The serum was separated from the obtained blood, and the TNFα concentration in the serum was measured using an assay kit made by R&D Systems Inc. The inhibition rates of the test group with respect to the control group are shown in Table 3.

[2] = target: T1, TLR4 (Mus musculus, UniProt Q9QUK6); assay: Inhibitory effect with respect to NO production (LPS/interferon γ stimulated RAW264.7 cells); format: cell-based, murine; settings: test compound 100 nM, LPS 1.25 ng/mL + mouse interferon γ 0.2 ng/mL, nitrite ion in culture supernatant
T1 construct: endogenous in cells; host or cells: RAW264.7 (murine macrophage cell line)
T1 sequence (Q9QUK6 26-835): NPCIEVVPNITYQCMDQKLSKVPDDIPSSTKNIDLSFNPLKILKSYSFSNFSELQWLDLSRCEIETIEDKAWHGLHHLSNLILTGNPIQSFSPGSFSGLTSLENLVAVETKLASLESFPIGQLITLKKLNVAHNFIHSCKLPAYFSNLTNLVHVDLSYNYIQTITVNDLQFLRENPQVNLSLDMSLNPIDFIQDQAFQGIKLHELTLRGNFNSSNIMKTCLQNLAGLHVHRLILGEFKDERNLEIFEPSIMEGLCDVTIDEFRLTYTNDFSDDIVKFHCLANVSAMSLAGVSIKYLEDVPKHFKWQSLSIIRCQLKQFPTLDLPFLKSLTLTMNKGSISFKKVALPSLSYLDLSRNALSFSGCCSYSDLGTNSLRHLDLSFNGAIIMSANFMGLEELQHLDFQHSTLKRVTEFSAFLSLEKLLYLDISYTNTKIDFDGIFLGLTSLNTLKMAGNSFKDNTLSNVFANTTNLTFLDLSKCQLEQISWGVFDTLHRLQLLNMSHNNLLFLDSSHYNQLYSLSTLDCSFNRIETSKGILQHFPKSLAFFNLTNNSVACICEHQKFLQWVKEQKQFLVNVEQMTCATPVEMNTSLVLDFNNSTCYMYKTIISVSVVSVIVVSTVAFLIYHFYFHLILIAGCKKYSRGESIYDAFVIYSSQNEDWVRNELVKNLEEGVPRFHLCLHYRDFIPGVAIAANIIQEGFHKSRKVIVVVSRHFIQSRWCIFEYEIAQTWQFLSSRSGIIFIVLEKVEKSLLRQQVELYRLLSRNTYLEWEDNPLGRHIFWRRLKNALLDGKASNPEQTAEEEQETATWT
T1 sequence (Q9JHF9 19-160 partner): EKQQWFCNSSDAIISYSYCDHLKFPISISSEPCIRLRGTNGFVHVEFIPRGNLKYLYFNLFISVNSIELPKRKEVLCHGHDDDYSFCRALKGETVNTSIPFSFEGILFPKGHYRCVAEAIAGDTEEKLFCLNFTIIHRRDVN
Experimental: Inhibitory Effect With Respect to NO Production
The inhibitory effect on TLR4 was determined using the inhibition rate due to the test compound with respect to NO production as a result of addition of lipopolysaccharide (LPS) using murine macrophage cell line RAW264.7. The cells were adjusted to 2×10^6 cells/mL using RPM1-1640 culture medium (phenol red free) supplemented with 10% inactivated bovine fetal serum, and were plated on 384 well plate so as to contain 6×10^4 cells/30 μL per well. Thereafter the cells were cultured at 37° C. overnight under 5% CO2/95% air. The test compound dissolved in DMSO was diluted 200 times using RPM1-1640 culture medium and adjusted so as to form a compound concentration of 500 nM. The prepared test compound 10 μL (final concentration 100 nM) was added to the cells, and LPS (Sigma) and mouse interferon γ (Wako Pure Chemicals) were added in amounts of 10 μL so as to form final concentrations of 1.25 ng/mL and 0.2 ng/mL respectively. The cells were further cultured overnight, and then the nitrite ion (stable NO metabolite) concentration in the culture supernatant was measured as an index of NO production. The nitrite ion concentration was assayed by adding 10 μL of 20 μg/mL 2,3-diamino naphthalene (DAN) dissolved in 0.2N HCl to 20 μL culture supernatant, incubating at room temperature for ten minutes, and then adding 10 μL of 0.5N NaOH, and measuring the fluorescent value at 460 nm (excitation wavelength 355 nm) using an EnVision plate reader (Perkin Elmer). The NO production inhibition rate (%) was calculated using the value without the addition of stimulating agent as control of 100% inhibition, and the value without the addition of the compound as control of 0% inhibition.

SMILES: CCOC(=O)C1=CC2(CCC1S(=O)(=O)Cc1ccc(F)cc1Cl)O[C@@H](CO)[C@H](CO)O2 (single isomer, unassigned) [Compound 7]
Blood TNFα inhibition rate (% inhibition) ([1]; Dose 10 mg/kg): 92.4 % inhibition
NO production inhibitory effect at 100 nM (% inhibition) ([2]; 0.1 µM): 100 % inhibition

SMILES: CCOC(=O)C1=CC2(CCC1S(=O)(=O)Cc1ccc(F)cc1Cl)O[C@H](CO)[C@@H](CO)O2 (single isomer, unassigned) [Compound 14]
Blood TNFα inhibition rate (% inhibition) ([1]; Dose 10 mg/kg): 82.8 % inhibition
NO production inhibitory effect at 100 nM (% inhibition) ([2]; 0.1 µM): 100 % inhibition

SMILES: CCOC(=O)C1=CC2(CCC1S(=O)(=O)Cc1ccc(F)cc1Cl)O[C@@H](CO)[C@H](CO)O2 (stereo partly drawn) [Compound 1, ethyl (2S,3S)-8-((2-chloro-4-fluorobenzyl)sulfonyl)-2,3-bis(hydroxymethyl)-1,4-dioxaspiro[4.5]dec-6-ene-7-carboxylate]
Blood TNFα inhibition rate (% inhibition) ([1]; Dose 20 mg/kg): 83.3 % inhibition
NO production inhibitory effect at 100 nM (% inhibition) [2]: 107 % inhibition

SMILES: CCOC(=O)C1=CC2(CCC1S(=O)(=O)Cc1ccc(F)cc1Cl)O[C@H](CO)[C@@H](CO)O2 (stereo partly drawn) [Compound 2, ethyl (2R,3R)-8-((2-chloro-4-fluorobenzyl)sulfonyl)-2,3-bis(hydroxymethyl)-1,4-dioxaspiro[4.5]dec-6-ene-7-carboxylate]
Blood TNFα inhibition rate (% inhibition) ([1]; Dose 20 mg/kg): 84.5 % inhibition
NO production inhibitory effect at 100 nM (% inhibition) [2]: 106 % inhibition

SMILES: CCOC(=O)C1=CC2(CCC1S(=O)(=O)Cc1cccc(Cl)c1)O[C@H](CO)[C@@H](CO)O2 (stereo partly drawn) [Compound 3, ethyl (2R,3R)-8-((3-chlorobenzyl)sulfonyl)-2,3-bis(hydroxymethyl)-1,4-dioxaspiro[4.5]dec-6-ene-7-carboxylate]
Blood TNFα inhibition rate (% inhibition) ([1]; Dose 20 mg/kg): 84.9 % inhibition
NO production inhibitory effect at 100 nM (% inhibition) [2]: 100 % inhibition

Second part, led by results:

NO production inhibitory effect at 100 nM (% inhibition) [2]: 100 % inhibition
SMILES: CCOC(=O)C1=CC2(CCC1S(=O)(=O)Cc1cccc(Cl)c1)O[C@@H](CO)[C@H](CO)O2 (stereo partly drawn) [Compound 24, ethyl (2S,3S)-8-((3-chlorobenzyl)sulfonyl)-2,3-bis(hydroxymethyl)-1,4-dioxaspiro[4.5]dec-6-ene-7-carboxylate]
Blood TNFα inhibition rate (% inhibition) ([1]; Dose 20 mg/kg): 91.5 % inhibition

NO production inhibitory effect at 100 nM (% inhibition) [2]: 98 % inhibition
SMILES: CCOC(=O)C1=CC2(CCC1S(=O)(=O)Cc1cccc(C)c1)O[C@@H](CO)[C@H](CO)O2 (stereo partly drawn) [Compound 25, ethyl (2S,3S)-2,3-bis(hydroxymethyl)-8-((3-methylbenzyl)sulfonyl)-1,4-dioxaspiro[4.5]dec-6-ene-7-carboxylate]
Blood TNFα inhibition rate (% inhibition) ([1]; Dose 20 mg/kg): 93.8 % inhibition

NO production inhibitory effect at 100 nM (% inhibition) [2]: 86 % inhibition
SMILES: CCOC(=O)C1=CC2(CCC1S(=O)(=O)Cc1ccc(F)cc1Cl)OC[C@H](CNC(=O)OCc1ccccc1)O2 (stereo partly drawn) [Compound 29, ethyl (2S)-2-((((benzyloxy)carbonyl)amino)methyl)-8-((2-chloro-4-fluorobenzyl)sulfonyl)-1,4-dioxaspiro[4.5]dec-6-ene-7-carboxylate]

NO production inhibitory effect at 100 nM (% inhibition) [2]: 106 % inhibition
SMILES: CCOC(=O)C1=CC2(CC[C@H]1S(=O)(=O)Cc1cccc(Cl)c1)O[C@H](CO)[C@@H](CO)O2 [Compound 30, ethyl (2R,3R,8R)-8-((3-chlorobenzyl)sulfonyl)-2,3-bis(hydroxymethyl)-1,4-dioxaspiro[4.5]dec-6-ene-7-carboxylate]

NO production inhibitory effect at 100 nM (% inhibition) [2]: 103 % inhibition
SMILES: CCOC(=O)C1=CC2(CC[C@H]1S(=O)(=O)Cc1ccccc1Cl)O[C@H](CO)[C@@H](CO)O2 [Compound 31, ethyl (2R,3R,8R)-8-((2-chlorobenzyl)sulfonyl)-2,3-bis(hydroxymethyl)-1,4-dioxaspiro[4.5]dec-6-ene-7-carboxylate]

NO production inhibitory effect at 100 nM (% inhibition) [2]: 114 % inhibition
SMILES: CCOC(=O)C1=CC2(CC[C@H]1S(=O)(=O)Cc1ccccc1Cl)O[C@@H](CO)[C@H](CO)O2 [Compound 32, ethyl (2S,3S,8R)-8-((2-chlorobenzyl)sulfonyl)-2,3-bis(hydroxymethyl)-1,4-dioxaspiro[4.5]dec-6-ene-7-carboxylate]
